Test results as given in patent US20090117177A1, “Echogenic microbubbles and microemulsions for ultrasound-enhanced nanoparticle-mediated delivery of agents” (priority 2005, published 2009).
In brackets after ≈: the same amount, converted by molar mass.

Legend:
colon cancer HCT116 = experiment: Sensitivity of HCT116 to DOX; type: cell-based, human
[1] = system: HCT116 colon cancer tumors; experiment: HCT116 tumor growth rates; type: in vivo, male nu/nu mice; details: intravenous injection, DOX 3 mg/kg
Protocol: Tumors: HCT116 colon cancer tumors were inoculated subcutaneously to the right flanks of male nu/nu mice. (See, FIGS. 24 and 25). In contrast to A2780 tumors, this tumor is characterized as being poorly vascularized (See, FIG. 24).
(§1) DOX-loaded micelles were injected either intravenously (i.v.) or intratumorally (i.t.) at a DOX dosage of 3 mg/kg (growth rate studies) or 6 mg/kg (biodistribution studies).
Tumor growth rates: Animals were randomly assigned to experimental and control groups, comprising five animals each. Intravenous treatment was initiated when tumor volume reached 50-100 mm^3. Intratumoral treatment was initiated when tumor volume reached 150-300 mm^3. A total of four injections were delivered twice a week for two weeks. For intratumoral injections, four injections of 25 μl drug solution each were made into four sites of a tumor.

[2] = system: HCT116 colon cancer tumors; experiment: HCT116 biodistribution, DOX uptake by cells of organs by flow cytometry; type: in vivo, male nu/nu mice
Protocol: as §1
Biodistribution studies: DOX uptake by the cells of various organs was measured by flow cytometry. Mice were intratumorally injected with either free (i.e., PBS-dissolved) DOX or micelle-encapsulated DOX. Ten hours after injection of the composition, mice were sacrificed and tumors and various organs were excised and digested in trypsin.

[3] = ten hours after intratumoral injection

## COc1cccc2c1C(=O)c1c(O)c3c(c(O)c1C2=O)C[C@@](O)(C(=O)CO)C[C@@H]3O[C@H]1C[C@H](N)[C@H](O)[C@H](C)O1 [DOX, doxorubicin]
Colon cancer HCT116
  IC50: 1.5 µg/mL (≈ 2.76 µM)
[1]
  tumor response: high resistance to chemotherapy
[2]; ten hours after i.v. injection
  DOX internalization by tumor cells: did not deliver drug to tumor cells
[2]; [3]
  DOX in spleen cells: slightly higher
  DOX uptake by heart cells: significant uptake
